# Results from article PMC6032158, “Structure–Activity Relationship of Piplartine and Synthetic Analogues against Schistosoma mansoni and Cytotoxicity to Mammalian Cells” (International Journal of Molecular Sciences, 2018).
# “Also recorded” adds a separate entry of the source.
# How the values were obtained:
# J774A.1 cells = assay: Cell death mechanism, annexin-V FITC / propidium iodide staining by flow cytometry; type: cell-based, mouse; conditions: J774A.1, 24 h; piplartine 25 μg/mL, 14B 400 μg/mL
# Experimental: Cells were then treated with 2 µL of annexin-V FITC (Apoptosis Detection Kit; BD Biosciences, Franklin Lakes, NJ, USA) and 2 µL of propidium iodide (PI, 50 µg/mL) for 15 min in the dark at room temperature. Next, 100 µL binding buffer was added and samples were analysed by flow cytometry (BD LSFortessa^TM, Franklin Lakes, NJ, USA). A total of 20,000 events were collected per sample.
# [1] = test system: murine fibroblast (NIH-3T3) cells; assay: MTT cytotoxicity assay in murine fibroblasts; type: cell-based
# In short: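 NIH-3T3 cells exposed 24 h to samples at 25–800 µg/mL in 3% DMSO, with 3% DMSO as control. MTT (5 mg/mL stock) added for 2 h, formazan dissolved in DMSO, absorbance read at 595 nm.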
# [2] = test system: 49-day-old S. mansoni adult worms; assay: In vitro experiments with adult worms of S. mansoni (mortality, motor activity); type: cell-based, Schistosoma mansoni; conditions: for Dead Worms (%) F / Motor Activity Reduction (%) Significant F / Motor Activity Reduction (%) Slight F: female worms; for Dead Worms (%) M / Motor Activity Reduction (%) Significant M / Motor Activity Reduction (%) Slight M: male worms
# In short: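 BH-strain worm pairs recovered from hamsters 49 days post-infection, washed in RPMI 1640 with penicillin, streptomycin and amphotericin B, and cultured as mated pairs with or without drug for 96 h. Motor activity changes and death were scored by microscopy.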
smiles,measurement,setting,value
"OO [Compound H2O2, hydrogen peroxide, reference compound]",annexin-V FITC staining (apoptosis marker) vs DMEM negative control (in words),J774A.1 cells,significant (p < 0.05) increase in annexin-V FITC fluorescence intensity
O=C(/C=C/c1ccc2c(c1)OCO2)N1CCCC1 [Compound 14B],annexin-V FITC staining (apoptosis marker) vs DMEM negative control (in words),J774A.1 cells,significant (p < 0.05) increase in annexin-V FITC staining
same,effect on NIH-3T3 cell viability (in words),"[1]; MTT, 24 h exposure, 25 to 800 µg/mL","considerable reduction in cell viability at concentrations of 400 and 800 μg/mL; also recorded: showed toxicity at 200, 400 and 800 μg/mL"
same,Emax at 800 µg/mL,"[1]; Mus musculus, NIH3T3, 24 h, decrease in cell viability at the maximum concentration tested (800 μg/mL), NIH-3T3, 24 h",83.64 ± 0.47%
same,Dead Worms (%) F,"[2]; 5 µM, 24 h",0%
same,Motor Activity Reduction (%) Significant F,"[2]; 5 µM, 24 h",0%
same,Motor Activity Reduction (%) Slight F,"[2]; 5 µM, 24 h",0%
same,Dead Worms (%) M,"[2]; 5 µM, 24 h",0%
same,Motor Activity Reduction (%) Significant M,"[2]; 5 µM, 24 h",0%
same,Motor Activity Reduction (%) Slight M,"[2]; 5 µM, 24 h",0%
same,Dead Worms (%) F,"[2]; 5 µM, 48 h",0%
same,Motor Activity Reduction (%) Significant F,"[2]; 5 µM, 48 h",0%
same,Motor Activity Reduction (%) Slight F,"[2]; 5 µM, 48 h",0%
same,Dead Worms (%) M,"[2]; 5 µM, 48 h",0%
same,Motor Activity Reduction (%) Significant M,"[2]; 5 µM, 48 h",0%
same,Motor Activity Reduction (%) Slight M,"[2]; 5 µM, 48 h",0%
same,Dead Worms (%) F,"[2]; 5 µM, 72 h",0%
same,Motor Activity Reduction (%) Significant F,"[2]; 5 µM, 72 h",0%
same,Motor Activity Reduction (%) Slight F,"[2]; 5 µM, 72 h",0%
same,Dead Worms (%) M,"[2]; 5 µM, 72 h",0%
same,Motor Activity Reduction (%) Significant M,"[2]; 5 µM, 72 h",0%
same,Motor Activity Reduction (%) Slight M,"[2]; 5 µM, 72 h",0%
same,Dead Worms (%) F,"[2]; 5 µM, 96 h",0%
same,Motor Activity Reduction (%) Significant F,"[2]; 5 µM, 96 h",0%
same,Motor Activity Reduction (%) Slight F,"[2]; 5 µM, 96 h",0%
same,Dead Worms (%) M,"[2]; 5 µM, 96 h",0%
same,Motor Activity Reduction (%) Significant M,"[2]; 5 µM, 96 h",0%
same,Motor Activity Reduction (%) Slight M,"[2]; 5 µM, 96 h",0%
same,Dead Worms (%) F,"[2]; 10 µM, 24 h",0%
same,Motor Activity Reduction (%) Significant F,"[2]; 10 µM, 24 h",0%
same,Motor Activity Reduction (%) Slight F,"[2]; 10 µM, 24 h",0%
same,Dead Worms (%) M,"[2]; 10 µM, 24 h",0%
same,Motor Activity Reduction (%) Significant M,"[2]; 10 µM, 24 h",0%
same,Motor Activity Reduction (%) Slight M,"[2]; 10 µM, 24 h",0%
same,Dead Worms (%) F,"[2]; 10 µM, 48 h",0%
same,Motor Activity Reduction (%) Significant F,"[2]; 10 µM, 48 h",0%
same,Motor Activity Reduction (%) Slight F,"[2]; 10 µM, 48 h",0%
same,Dead Worms (%) M,"[2]; 10 µM, 48 h",0%
same,Motor Activity Reduction (%) Significant M,"[2]; 10 µM, 48 h",0%
same,Motor Activity Reduction (%) Slight M,"[2]; 10 µM, 48 h",0%
same,Dead Worms (%) F,"[2]; 10 µM, 72 h",0%
same,Motor Activity Reduction (%) Significant F,"[2]; 10 µM, 72 h",0%
same,Motor Activity Reduction (%) Slight F,"[2]; 10 µM, 72 h",0%
same,Dead Worms (%) M,"[2]; 10 µM, 72 h",0%
same,Motor Activity Reduction (%) Significant M,"[2]; 10 µM, 72 h",0%
same,Motor Activity Reduction (%) Slight M,"[2]; 10 µM, 72 h",0%
same,Dead Worms (%) F,"[2]; 10 µM, 96 h",0%
same,Motor Activity Reduction (%) Significant F,"[2]; 10 µM, 96 h",0%
same,Motor Activity Reduction (%) Slight F,"[2]; 10 µM, 96 h",0%
same,Dead Worms (%) M,"[2]; 10 µM, 96 h",0%
same,Motor Activity Reduction (%) Significant M,"[2]; 10 µM, 96 h",0%
same,Motor Activity Reduction (%) Slight M,"[2]; 10 µM, 96 h",0%
same,Dead Worms (%) F,"[2]; 25 µM, 24 h",0%
same,Motor Activity Reduction (%) Significant F,"[2]; 25 µM, 24 h",0%
same,Motor Activity Reduction (%) Slight F,"[2]; 25 µM, 24 h",0%
same,Dead Worms (%) M,"[2]; 25 µM, 24 h",0%
same,Motor Activity Reduction (%) Significant M,"[2]; 25 µM, 24 h",0%
same,Motor Activity Reduction (%) Slight M,"[2]; 25 µM, 24 h",0%
same,Dead Worms (%) F,"[2]; 25 µM, 48 h",0%
same,Motor Activity Reduction (%) Significant F,"[2]; 25 µM, 48 h",0%
same,Motor Activity Reduction (%) Slight F,"[2]; 25 µM, 48 h",0%
same,Dead Worms (%) M,"[2]; 25 µM, 48 h",0%
same,Motor Activity Reduction (%) Significant M,"[2]; 25 µM, 48 h",0%
same,Motor Activity Reduction (%) Slight M,"[2]; 25 µM, 48 h",0%
same,Dead Worms (%) F,"[2]; 25 µM, 72 h",0%
same,Motor Activity Reduction (%) Significant F,"[2]; 25 µM, 72 h",0%
same,Motor Activity Reduction (%) Slight F,"[2]; 25 µM, 72 h",0%
same,Dead Worms (%) M,"[2]; 25 µM, 72 h",0%
same,Motor Activity Reduction (%) Significant M,"[2]; 25 µM, 72 h",0%
same,Motor Activity Reduction (%) Slight M,"[2]; 25 µM, 72 h",0%
same,Dead Worms (%) F,"[2]; 25 µM, 96 h",0%
same,Motor Activity Reduction (%) Significant F,"[2]; 25 µM, 96 h",0%
same,Motor Activity Reduction (%) Slight F,"[2]; 25 µM, 96 h",0%
same,Dead Worms (%) M,"[2]; 25 µM, 96 h",0%
same,Motor Activity Reduction (%) Significant M,"[2]; 25 µM, 96 h",0%
same,Motor Activity Reduction (%) Slight M,"[2]; 25 µM, 96 h",0%
same,Dead Worms (%) F,"[2]; 50 µM, 24 h",0%
same,Motor Activity Reduction (%) Significant F,"[2]; 50 µM, 24 h",0%
same,Motor Activity Reduction (%) Slight F,"[2]; 50 µM, 24 h",0%
same,Dead Worms (%) M,"[2]; 50 µM, 24 h",0%
same,Motor Activity Reduction (%) Significant M,"[2]; 50 µM, 24 h",0%
same,Motor Activity Reduction (%) Slight M,"[2]; 50 µM, 24 h",0%
same,Dead Worms (%) F,"[2]; 50 µM, 48 h",0%
same,Motor Activity Reduction (%) Significant F,"[2]; 50 µM, 48 h",0%
same,Motor Activity Reduction (%) Slight F,"[2]; 50 µM, 48 h",0%
same,Dead Worms (%) M,"[2]; 50 µM, 48 h",0%
same,Motor Activity Reduction (%) Significant M,"[2]; 50 µM, 48 h",0%
same,Motor Activity Reduction (%) Slight M,"[2]; 50 µM, 48 h",0%
same,Dead Worms (%) F,"[2]; 50 µM, 72 h",0%
same,Motor Activity Reduction (%) Significant F,"[2]; 50 µM, 72 h",0%
same,Motor Activity Reduction (%) Slight F,"[2]; 50 µM, 72 h",0%
same,Dead Worms (%) M,"[2]; 50 µM, 72 h",0%
same,Motor Activity Reduction (%) Significant M,"[2]; 50 µM, 72 h",0%
same,Motor Activity Reduction (%) Slight M,"[2]; 50 µM, 72 h",0%
same,Dead Worms (%) F,"[2]; 50 µM, 96 h",0%
same,Motor Activity Reduction (%) Significant F,"[2]; 50 µM, 96 h",0%
same,Motor Activity Reduction (%) Slight F,"[2]; 50 µM, 96 h",0%
same,Dead Worms (%) M,"[2]; 50 µM, 96 h",0%
same,Motor Activity Reduction (%) Significant M,"[2]; 50 µM, 96 h",0%
same,Motor Activity Reduction (%) Slight M,"[2]; 50 µM, 96 h",0%
same,activity against S. mansoni adult worms (in words),"[2]; analogues 50, 25, 10 and 5 μM, piplartine 5 and 10 μM, up to 96 h",loss of biological activity against S. mansoni
